Test results taken from ChEMBL document CHEMBL1201862, “PubChem BioAssay data set” (2004).
Activity calls are given as the source filed them.

Experiments:
[1] = molecular target: 1-phosphatidylinositol 4,5-bisphosphate phosphodiesterase gamma-1 (Homo sapiens, UniProt P19174); assay: Counterscreen for inhibitors of phospholipase C isozymes (PLC-B3): Fluorescence-based biochemical high throughput dose response assay to identify inhibitors of phospholipase C isozymes (PLC-gamma1).
[2] = molecular target: 1-phosphatidylinositol 4,5-bisphosphate phosphodiesterase beta-3 (Homo sapiens, UniProt Q01970); assay: Fluorescence-based biochemical high throughput dose response assay to identify inhibitors of phospholipase C isozymes (PLC-B3).
Ephrin type-A receptor 4 = Ephrin type-A receptor 4 (Mus musculus, UniProt Q03137); assay: EphA4 ligand-binding antagonists – biochemical, colorimetric, mouse EphA4, primary screen (AID 689); type: functional
[3] = molecular target: Metabotropic glutamate receptor 5 (Rattus norvegicus, UniProt P31424); assay: Identification of a glycine sulfonamide based non-MPEP site positive allosteric potentiator (PAM) of mGlu5 (calcium_assay).; type: functional
Protein RecA = molecular target: T1, Protein RecA (Mycobacterium tuberculosis, UniProt P9WHJ3); assay: Fluorescence Cell-Free Homogeneous Dose Retest to Identify Inhibitors of RecA-Intein Splicing Activity. [Related pubchem assays (depositor defined):AID2097, AID2223, AID489010, AID492950]; type: functional
T1 sequence (P9WHJ3 whole entry): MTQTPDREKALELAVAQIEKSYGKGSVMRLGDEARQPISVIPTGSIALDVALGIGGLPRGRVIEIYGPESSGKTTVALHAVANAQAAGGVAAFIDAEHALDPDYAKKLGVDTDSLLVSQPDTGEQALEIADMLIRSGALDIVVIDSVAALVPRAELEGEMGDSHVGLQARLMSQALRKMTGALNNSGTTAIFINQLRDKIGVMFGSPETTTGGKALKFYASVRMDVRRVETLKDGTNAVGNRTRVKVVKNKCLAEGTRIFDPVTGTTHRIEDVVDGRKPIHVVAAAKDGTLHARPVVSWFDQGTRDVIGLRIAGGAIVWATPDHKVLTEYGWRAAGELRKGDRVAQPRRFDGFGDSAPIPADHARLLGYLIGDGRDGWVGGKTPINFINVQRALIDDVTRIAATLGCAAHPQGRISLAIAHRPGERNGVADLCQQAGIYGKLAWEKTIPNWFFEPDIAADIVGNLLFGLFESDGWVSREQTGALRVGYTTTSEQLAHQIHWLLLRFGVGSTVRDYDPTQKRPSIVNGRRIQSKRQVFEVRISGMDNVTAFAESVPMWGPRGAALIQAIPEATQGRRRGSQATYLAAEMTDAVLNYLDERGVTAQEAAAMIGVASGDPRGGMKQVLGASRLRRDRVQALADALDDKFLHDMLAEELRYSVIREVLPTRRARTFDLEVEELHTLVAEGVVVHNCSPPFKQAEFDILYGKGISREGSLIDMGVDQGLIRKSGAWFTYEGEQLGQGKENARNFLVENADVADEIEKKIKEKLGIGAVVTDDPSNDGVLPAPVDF

[4] = non-specific 3'UTR reporter inhibition in Clone20-Shn3RL – cell-based, Renilla luciferase, cherry-picked, counter-screen for Shn3 inhibitor project, dose response (AID 624133); type: functional
[5] = molecular target: COUP transcription factor 2 (Homo sapiens, UniProt P24468); assay: Luminescence-based cell-based high throughput dose response assay to identify inhibitors of COUP-TFII (NR2F2).; type: functional;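 also: HEK293 cells transiently cotransfected with COUP-TFII expression vector and reporter; luciferase reporter luminescence driven by COUP-TFII from the pX2-168 reporter plasmid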
[6] = loss of viability in HepG2 cells – cell-based, CellTiter-Glo, cherry-picked, cytotoxicity control for Shn3 inhibitor project, dose response (AID 624134); type: functional
INS1 = assay: INS-1E survival protection against cytokine death – cell-based, luminescence, retest, dose response (AID 449756); type: functional; conditions: Rattus norvegicus;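 also: cell death triggered by IL-1 beta plus TNF-alpha plus IFN-gamma mixture; protective hits raise ATP signal compared with cytokine alone wells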
[7] = molecular target: T2, Replicative DNA helicase DnaB (Mycobacterium tuberculosis, UniProt P9WMR3); assay: DnaB intein splicing inhibitors, dose response, biochemical, cell-free fluorescence (AID 449749); type: functional
T2 sequence (P9WMR3 whole entry): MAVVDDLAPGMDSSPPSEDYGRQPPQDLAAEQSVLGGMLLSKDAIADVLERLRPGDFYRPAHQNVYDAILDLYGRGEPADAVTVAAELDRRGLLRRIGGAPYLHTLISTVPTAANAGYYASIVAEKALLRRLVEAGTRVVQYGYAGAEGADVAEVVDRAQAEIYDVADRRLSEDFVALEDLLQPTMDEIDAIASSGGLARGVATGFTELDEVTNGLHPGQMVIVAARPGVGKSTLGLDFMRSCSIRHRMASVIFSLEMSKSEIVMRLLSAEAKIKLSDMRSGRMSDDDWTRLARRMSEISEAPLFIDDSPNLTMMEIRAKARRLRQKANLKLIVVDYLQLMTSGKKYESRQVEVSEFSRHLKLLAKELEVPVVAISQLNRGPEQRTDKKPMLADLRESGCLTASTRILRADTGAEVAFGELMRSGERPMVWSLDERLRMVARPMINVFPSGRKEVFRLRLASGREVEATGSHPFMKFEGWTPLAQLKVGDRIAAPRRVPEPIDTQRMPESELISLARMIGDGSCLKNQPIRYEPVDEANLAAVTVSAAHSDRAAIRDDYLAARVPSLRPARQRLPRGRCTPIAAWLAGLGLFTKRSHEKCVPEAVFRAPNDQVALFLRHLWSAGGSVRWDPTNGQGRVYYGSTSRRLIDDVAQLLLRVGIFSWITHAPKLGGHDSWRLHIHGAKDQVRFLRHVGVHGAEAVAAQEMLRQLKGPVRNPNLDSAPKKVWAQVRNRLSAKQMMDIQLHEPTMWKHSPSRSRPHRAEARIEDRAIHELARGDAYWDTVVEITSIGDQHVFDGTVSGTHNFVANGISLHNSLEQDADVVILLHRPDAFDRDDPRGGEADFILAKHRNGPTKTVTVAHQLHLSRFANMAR

[8] = reduction of Shn3 3'UTR-driven luciferase in osteoblasts – cell-based, Clone20 osteoblasts, firefly luciferase, cherry-picked, dose response (AID 624132); type: functional;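 also: firefly luciferase luminescence from reporter carrying the Shn3 3'UTR in osteoblasts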
[9] = kidney cell line viability loss – HEK293T, luminescence plate reader, powder samples, set 4, cytotoxicity control, dose response (AID 651863); type: functional, cell-based; conditions: HEK293
[10] = liver cell line viability loss – HepG2, luminescence plate reader, powder samples, set 2, cytotoxicity control, dose response (AID 651860); type: functional, cell-based
fMet-Leu-Phe receptor = fMet-Leu-Phe receptor (Homo sapiens, UniProt P21462); assay: formyl peptide receptor binders – dose response (AID 519); type: functional
[11] = anti-trypanosomal activity in BESM host cells – imaging, CA-I/72 strain, bovine embryo skeletal muscle, dry powder, dose response (AID 651885); type: functional, cell-based
[12] = mouse embryonic fibroblast toxicity – cell-based, plate reader, dry powder, set 2, cytotoxicity control, dose response (AID 652280); type: functional; conditions: NIH3T3
[13] = T. cruzi growth inhibition in host cells, dose response, cell-based, plate reader, dry powder, set 2 (AID 652275); type: functional
Streptokinase A = molecular target: T3, Streptokinase A (Streptococcus pyogenes serotype M1, UniProt P10520); assay: viability-normalized secreted streptokinase activity reduction – plasminogen activation absorbance, OD405, dose response (AID 1914); type: functional, Streptococcus pyogenes M1 GAS;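 also: secreted streptokinase activity via plasminogen activation per viability signal from cell pellet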
T3 sequence (P10520 whole entry): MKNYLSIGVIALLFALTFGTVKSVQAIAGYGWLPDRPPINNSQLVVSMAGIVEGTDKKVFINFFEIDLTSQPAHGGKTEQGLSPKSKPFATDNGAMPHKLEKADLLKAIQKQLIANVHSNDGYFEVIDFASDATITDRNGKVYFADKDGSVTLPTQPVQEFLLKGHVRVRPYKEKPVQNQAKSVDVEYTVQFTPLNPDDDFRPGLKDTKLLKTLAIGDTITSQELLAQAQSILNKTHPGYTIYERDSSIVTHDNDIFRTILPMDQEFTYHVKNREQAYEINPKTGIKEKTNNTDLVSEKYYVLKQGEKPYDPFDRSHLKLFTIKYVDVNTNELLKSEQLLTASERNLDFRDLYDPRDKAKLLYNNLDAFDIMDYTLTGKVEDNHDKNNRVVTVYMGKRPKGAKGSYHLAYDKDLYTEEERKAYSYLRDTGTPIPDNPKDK

[14] = potency of ADAM10 substrate cleavage blockers – biochemical, QFRET, dose response (AID 743254);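 also: ADAM10 enzyme with the DM2 quenched FRET peptide as substrate; EDANS fluorescence gain as the protease cuts the substrate; inhibitor potency against ADAM10 proteolytic activity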
[15] = test system: Streptococcus sp. 'group A'; assay: Streptococcus pyogenes SK(-)GAS viability under kanamycin – luminescence, BacTiterGlo, confirmation, counter-screen for streptokinase expression inhibitor project, dose response (AID 1900); type: functional, organism-based
Streptococcus = assay: GAS UMAA2166 growth inhibition – luminescence, BacTiterGlo, counter-screen for streptokinase expression inhibitor project, dose response (AID 1915); type: functional, organism-based;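 also: potency for reduction of bacterial viability or growth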
[16] = molecular target: Disintegrin and metalloproteinase domain-containing protein 17 (Homo sapiens, UniProt P78536); assay: inhibition of ADAM17 substrate cleavage – biochemical, quenched FRET substrate, counter-screen for ADAM10 exosite inhibitor project, dose response (AID 743253)
Disintegrin and metalloproteinase domain-containing protein 17, sequence (P78536 whole entry, the tested form may be a part): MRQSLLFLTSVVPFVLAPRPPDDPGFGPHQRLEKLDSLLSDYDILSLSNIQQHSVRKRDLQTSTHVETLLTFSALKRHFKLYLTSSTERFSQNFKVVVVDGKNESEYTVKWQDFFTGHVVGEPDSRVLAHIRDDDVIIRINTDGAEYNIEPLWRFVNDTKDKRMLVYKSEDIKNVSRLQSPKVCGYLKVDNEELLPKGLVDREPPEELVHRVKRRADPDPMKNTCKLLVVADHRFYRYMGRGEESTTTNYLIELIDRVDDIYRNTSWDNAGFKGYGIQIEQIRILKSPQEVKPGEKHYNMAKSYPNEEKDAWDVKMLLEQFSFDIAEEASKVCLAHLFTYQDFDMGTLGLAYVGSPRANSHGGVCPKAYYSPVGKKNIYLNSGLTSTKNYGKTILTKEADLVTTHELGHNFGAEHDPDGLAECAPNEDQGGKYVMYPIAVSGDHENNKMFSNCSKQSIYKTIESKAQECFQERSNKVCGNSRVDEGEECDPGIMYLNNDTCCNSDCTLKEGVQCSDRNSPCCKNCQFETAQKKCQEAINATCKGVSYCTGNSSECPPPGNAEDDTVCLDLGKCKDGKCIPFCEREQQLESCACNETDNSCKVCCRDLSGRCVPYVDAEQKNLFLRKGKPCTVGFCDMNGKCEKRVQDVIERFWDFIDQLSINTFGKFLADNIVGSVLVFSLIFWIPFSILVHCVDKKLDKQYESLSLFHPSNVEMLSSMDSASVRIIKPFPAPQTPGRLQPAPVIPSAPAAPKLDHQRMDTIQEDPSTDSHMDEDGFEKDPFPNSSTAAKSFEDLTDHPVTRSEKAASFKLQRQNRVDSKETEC

COUP transcription factor 2, sequence (P24468 whole entry): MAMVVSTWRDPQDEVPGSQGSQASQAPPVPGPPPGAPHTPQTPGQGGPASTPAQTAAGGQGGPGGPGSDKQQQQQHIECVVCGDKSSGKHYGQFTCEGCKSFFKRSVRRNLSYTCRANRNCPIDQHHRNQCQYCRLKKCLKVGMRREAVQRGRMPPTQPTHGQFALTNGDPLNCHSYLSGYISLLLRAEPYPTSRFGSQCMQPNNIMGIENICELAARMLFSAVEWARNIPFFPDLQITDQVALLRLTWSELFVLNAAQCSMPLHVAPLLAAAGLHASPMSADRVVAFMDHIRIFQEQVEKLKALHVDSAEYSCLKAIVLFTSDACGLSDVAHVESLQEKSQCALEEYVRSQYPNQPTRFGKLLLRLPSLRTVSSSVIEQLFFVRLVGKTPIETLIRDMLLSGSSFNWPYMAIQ
1-phosphatidylinositol 4,5-bisphosphate phosphodiesterase gamma-1, sequence (P19174 whole entry): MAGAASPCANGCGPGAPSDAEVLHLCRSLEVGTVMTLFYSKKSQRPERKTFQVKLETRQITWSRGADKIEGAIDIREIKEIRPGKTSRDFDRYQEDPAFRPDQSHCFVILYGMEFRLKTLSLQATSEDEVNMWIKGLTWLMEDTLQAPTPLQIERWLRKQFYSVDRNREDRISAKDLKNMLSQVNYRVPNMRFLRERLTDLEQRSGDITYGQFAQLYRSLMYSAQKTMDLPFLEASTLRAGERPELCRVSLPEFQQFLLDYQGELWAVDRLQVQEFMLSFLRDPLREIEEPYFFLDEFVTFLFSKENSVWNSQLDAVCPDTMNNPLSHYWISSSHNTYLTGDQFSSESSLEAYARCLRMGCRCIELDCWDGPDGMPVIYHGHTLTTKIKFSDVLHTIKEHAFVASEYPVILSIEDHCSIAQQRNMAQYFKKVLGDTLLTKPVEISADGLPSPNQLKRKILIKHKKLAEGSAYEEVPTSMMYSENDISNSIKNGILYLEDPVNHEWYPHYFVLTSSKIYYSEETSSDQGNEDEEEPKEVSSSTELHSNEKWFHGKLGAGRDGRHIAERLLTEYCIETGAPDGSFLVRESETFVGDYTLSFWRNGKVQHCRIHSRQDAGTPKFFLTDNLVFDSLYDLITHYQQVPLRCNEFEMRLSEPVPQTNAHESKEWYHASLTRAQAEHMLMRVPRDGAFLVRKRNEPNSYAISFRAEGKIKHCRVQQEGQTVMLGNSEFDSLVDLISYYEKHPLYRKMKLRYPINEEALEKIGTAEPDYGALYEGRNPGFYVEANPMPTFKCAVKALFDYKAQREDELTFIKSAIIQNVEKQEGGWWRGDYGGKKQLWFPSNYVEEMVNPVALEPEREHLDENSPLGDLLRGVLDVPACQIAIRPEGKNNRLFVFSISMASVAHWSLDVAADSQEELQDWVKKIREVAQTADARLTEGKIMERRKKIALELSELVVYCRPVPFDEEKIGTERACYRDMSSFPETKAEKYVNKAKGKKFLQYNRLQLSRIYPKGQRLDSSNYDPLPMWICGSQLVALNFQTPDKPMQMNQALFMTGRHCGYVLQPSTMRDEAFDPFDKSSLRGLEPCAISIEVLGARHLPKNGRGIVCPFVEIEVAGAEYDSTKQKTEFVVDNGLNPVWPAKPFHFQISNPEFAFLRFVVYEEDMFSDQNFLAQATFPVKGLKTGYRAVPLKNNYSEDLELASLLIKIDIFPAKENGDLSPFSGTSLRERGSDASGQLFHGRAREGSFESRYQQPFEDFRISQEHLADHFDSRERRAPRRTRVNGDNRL
Metabotropic glutamate receptor 5, sequence (P31424 whole entry): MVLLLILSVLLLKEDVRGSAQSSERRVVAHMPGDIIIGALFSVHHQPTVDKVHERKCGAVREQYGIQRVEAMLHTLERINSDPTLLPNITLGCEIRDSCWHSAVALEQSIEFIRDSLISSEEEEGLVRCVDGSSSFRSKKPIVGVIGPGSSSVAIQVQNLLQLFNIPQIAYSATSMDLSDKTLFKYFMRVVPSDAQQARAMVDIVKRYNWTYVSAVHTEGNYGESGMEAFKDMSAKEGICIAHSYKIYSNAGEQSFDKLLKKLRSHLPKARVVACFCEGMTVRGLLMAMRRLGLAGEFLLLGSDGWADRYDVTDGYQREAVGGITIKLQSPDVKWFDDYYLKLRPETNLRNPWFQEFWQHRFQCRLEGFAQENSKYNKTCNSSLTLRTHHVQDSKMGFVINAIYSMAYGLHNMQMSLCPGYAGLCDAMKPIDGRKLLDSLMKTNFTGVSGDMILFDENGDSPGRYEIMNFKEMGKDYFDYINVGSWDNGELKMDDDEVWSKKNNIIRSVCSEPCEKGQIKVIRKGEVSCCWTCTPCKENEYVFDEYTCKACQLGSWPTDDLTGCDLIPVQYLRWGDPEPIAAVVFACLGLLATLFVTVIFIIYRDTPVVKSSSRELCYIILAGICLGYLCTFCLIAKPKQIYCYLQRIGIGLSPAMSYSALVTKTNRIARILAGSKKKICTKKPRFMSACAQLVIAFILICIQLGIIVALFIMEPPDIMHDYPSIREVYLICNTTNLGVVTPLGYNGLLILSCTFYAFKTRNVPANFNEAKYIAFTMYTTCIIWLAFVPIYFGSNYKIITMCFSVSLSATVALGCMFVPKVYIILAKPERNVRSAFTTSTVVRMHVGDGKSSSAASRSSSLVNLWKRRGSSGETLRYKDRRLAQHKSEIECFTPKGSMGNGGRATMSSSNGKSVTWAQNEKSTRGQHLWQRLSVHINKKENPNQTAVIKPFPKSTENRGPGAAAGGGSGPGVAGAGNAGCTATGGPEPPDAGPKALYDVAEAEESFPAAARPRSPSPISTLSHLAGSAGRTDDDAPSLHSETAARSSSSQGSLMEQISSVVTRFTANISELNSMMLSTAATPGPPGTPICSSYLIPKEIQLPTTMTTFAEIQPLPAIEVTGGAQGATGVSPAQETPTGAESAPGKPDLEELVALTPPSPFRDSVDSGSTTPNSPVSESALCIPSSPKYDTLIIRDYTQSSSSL
1-phosphatidylinositol 4,5-bisphosphate phosphodiesterase beta-3, sequence (Q01970 whole entry): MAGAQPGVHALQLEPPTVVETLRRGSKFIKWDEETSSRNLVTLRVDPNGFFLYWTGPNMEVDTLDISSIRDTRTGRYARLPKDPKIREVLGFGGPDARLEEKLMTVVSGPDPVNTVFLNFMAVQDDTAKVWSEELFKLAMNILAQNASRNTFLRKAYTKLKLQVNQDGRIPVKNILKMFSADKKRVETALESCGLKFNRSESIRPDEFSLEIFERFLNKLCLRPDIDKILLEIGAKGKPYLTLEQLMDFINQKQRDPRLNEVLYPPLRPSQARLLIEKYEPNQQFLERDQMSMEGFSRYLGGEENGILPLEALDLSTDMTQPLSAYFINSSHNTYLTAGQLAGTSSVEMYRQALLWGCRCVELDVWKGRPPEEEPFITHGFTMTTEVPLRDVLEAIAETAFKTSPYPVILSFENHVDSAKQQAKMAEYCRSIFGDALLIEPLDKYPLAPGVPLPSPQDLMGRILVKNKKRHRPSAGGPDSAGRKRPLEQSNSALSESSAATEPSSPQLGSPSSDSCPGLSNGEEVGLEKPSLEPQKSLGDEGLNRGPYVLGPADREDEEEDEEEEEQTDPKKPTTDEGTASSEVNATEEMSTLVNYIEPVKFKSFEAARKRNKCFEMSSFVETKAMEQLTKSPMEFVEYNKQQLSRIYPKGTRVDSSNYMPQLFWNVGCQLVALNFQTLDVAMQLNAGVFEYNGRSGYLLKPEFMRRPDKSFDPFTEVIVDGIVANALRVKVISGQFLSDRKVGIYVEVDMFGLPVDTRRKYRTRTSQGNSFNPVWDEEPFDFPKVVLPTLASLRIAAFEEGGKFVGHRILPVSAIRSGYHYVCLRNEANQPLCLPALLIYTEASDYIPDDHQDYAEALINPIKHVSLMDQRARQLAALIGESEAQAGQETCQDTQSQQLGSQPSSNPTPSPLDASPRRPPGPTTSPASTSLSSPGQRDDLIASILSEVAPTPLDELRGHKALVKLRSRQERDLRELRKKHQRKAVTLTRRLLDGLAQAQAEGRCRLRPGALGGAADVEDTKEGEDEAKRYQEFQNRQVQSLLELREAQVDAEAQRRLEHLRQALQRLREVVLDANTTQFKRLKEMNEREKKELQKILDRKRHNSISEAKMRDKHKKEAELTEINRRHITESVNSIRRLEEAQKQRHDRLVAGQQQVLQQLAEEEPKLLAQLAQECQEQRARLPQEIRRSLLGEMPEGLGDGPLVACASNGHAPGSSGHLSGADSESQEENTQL

## O=[N+]([O-])c1ccc2[nH]cc(S(=O)(=O)N3CCN(c4cccc(Cl)c4)CC3)c2c1
[1]
  IC50: > 122 µM (inactive)
[2]
  IC50: > 122 µM (inactive)

## CS(=O)(=O)N(CC(=O)Nc1cccc(Cl)c1)c1ccccc1Cl
Ephrin type-A receptor 4
  IC50: > 100 µM (not active)
[3]
  EC50: 0.051 µM

## Cc1cccc(Nc2nc(NCc3ccco3)c3ccccc3n2)c1
Protein RecA
  EC50: 9.37 µM (active)
[4]
  AC50: 3.22 µM (active)
[5]
  IC50: 8.5 µM (active)
[6]
  AC50: 13.1 µM (active)
INS1
  AC50: 2.09 µM (active)
[7]
  AC50: 5.65 µM (active)
[8]
  AC50: 2.05 µM (active)

## Cc1ccc(S(=O)(=O)NC2=C/C(=N\[C@@H](C)C(=O)OC(C)(C)C)C(=O)c3ccccc32)c(C)c1
[9]
  AC50: 16.3 µM (active)
[10]
  AC50: 43 µM (active)

## COc1ccc(-c2cn3cccnc3n2)cc1NC(=O)C1CCCC1
fMet-Leu-Phe receptor
  Ki: > 66.7 µM (inactive)

## C[C@H]1CN([C@@H](C)CO)C(=O)c2cccc(NC(=O)c3ccncc3)c2O[C@@H]1CN(C)Cc1ccc(Cl)c(Cl)c1
[11]
  IC50: 0.00211 µM (active)
[12]
  AC50: 13.2 µM (active)
[13]
  AC50: 0.00674 µM (active)

## O=C(OCc1ccc(-c2ccccc2)cc1)c1cccc(O)c1
Streptokinase A
  EC50: 22.4 µM (active)
[14]
  IC50: > 7.72 µM (active)
[15]
  EC50: 11.4 µM (active)
Streptococcus
  EC50: 19 µM (active)
[16]
  IC50: > 69.5 µM (inactive)
